Experimental findings from patent US20250171417A1, “HETEROCYCLIC DERIVATIVE, AND COMPOSITION AND PHARMACEUTICAL USE THEREOF” (Xizang Haisco Pharmaceutical Co., Ltd., priority 2021, published 2025) are described below.

The test system of one series is Full-length AR (AR-FL). In words: Degradation experiment on full-length AR (AR-FL) in 22RV1 cells. It counts as cell-based. To be noted: 2 μM, 24 h. The procedure: (§1) Prostate cancer cells 22RV1 were purchased from ATCC, the cell medium was 1640+10% FBS, and the cells were cultured in an incubator at 37° C. under 5% CO2. On day 1, the cells in an exponential phase were collected. With a 1% css-FBS phenol red-free medium, the cell suspension was adjusted to a corresponding concentration and plated into a 6-well plate at 1 mL/well and 100000 cells/well. The next day, a 1% css-FBS phenol-free medium containing the compound to be tested was added, a 1% css-FBS phenol-free medium containing 0.2% DMSO was added to one well as DMSO vehicle control, and the 6-well plate was cultured in an incubator at 37° C. under 5% CO2. After 24 h, the cells were digested with pancreatin and collected into a 1.5 mL centrifuge tube. […] The supernatant protein samples were collected, and protein quantification was performed by a BCA method. AR-FL and AR-Vs were detected using fully automatic protein expression quantitative analysis, which involved diluting the protein to be tested to 1 mg/mL, 4 μL of the diluted protein samples were added to 1 μL of […] (provided in the kit), and the prepared samples were denatured at 95° C. for 5 min and placed on ice for use. […] The prepared reagents were successively added to an assay plate according to instructions of the kit and detected on an instrument. […]

Series [1] is described as follows: Pharmacokinetic test in rats. The series is classed as in vivo. To be noted: rat, plasma, po, male SD rats; for bioavailability: i.g. 5 mg/kg vs intravenous 2 mg/kg; for AUC(0-t): i.g. 5 mg/kg. The protocol: Test objective: In this experiment, a single dose of each test compound was administered to SD rats intravenously and intragastrically, and the concentrations of the test compounds in plasma of rats were measured to evaluate the pharmacokinetic characteristics of the test compounds in rats.
Experimental animals: male SD rats, 200-250 g, 6-8 weeks old, 6 rats/compound, purchased from Chengdu Ddossy Experimental Animals Co., Ltd.
Experimental method: on the day of the test, 6 SD rats were randomly grouped according to their body weight; the animals were fasted with water available for 12 to 14 hours one day before the administration of a test compound, and were fed 4 hours after the administration.
Sampling: Before and after the administration, 0.1 mL of blood samples were drawn from the orbits of the animals under isoflurane anesthesia, and placed in an EDTAK2 centrifuge tube. Centrifugation was carried out at 5000 rpm at 4° C. for 10 min, and the plasma was collected.
Time points for plasma collection in IV&PO group: 0, 5 min, 15 min, 30 min, 1 h, 2 h, 4 h, 6 h, 8 h, and 24 h.
Before analysis and detection, all samples were stored at −60° C. The samples were analyzed quantitatively by LC-MS/MS.

For series [2], the system named is AR splice variants (AR-Vs). In words: Degradation experiment on AR splice variants (AR-Vs) in 22RV1 cells. The series is classed as cell-based. Particulars: 2 μM, 24 h. The protocol:
as §1

The target of series [3] is T1, AR splice variant 7 (AR-V7) (Homo sapiens, UniProt P10275).
T1 construct: host or cells: 22RV1 prostate cancer cells
T1 sequence (P10275 1-644 isoform P10275-3): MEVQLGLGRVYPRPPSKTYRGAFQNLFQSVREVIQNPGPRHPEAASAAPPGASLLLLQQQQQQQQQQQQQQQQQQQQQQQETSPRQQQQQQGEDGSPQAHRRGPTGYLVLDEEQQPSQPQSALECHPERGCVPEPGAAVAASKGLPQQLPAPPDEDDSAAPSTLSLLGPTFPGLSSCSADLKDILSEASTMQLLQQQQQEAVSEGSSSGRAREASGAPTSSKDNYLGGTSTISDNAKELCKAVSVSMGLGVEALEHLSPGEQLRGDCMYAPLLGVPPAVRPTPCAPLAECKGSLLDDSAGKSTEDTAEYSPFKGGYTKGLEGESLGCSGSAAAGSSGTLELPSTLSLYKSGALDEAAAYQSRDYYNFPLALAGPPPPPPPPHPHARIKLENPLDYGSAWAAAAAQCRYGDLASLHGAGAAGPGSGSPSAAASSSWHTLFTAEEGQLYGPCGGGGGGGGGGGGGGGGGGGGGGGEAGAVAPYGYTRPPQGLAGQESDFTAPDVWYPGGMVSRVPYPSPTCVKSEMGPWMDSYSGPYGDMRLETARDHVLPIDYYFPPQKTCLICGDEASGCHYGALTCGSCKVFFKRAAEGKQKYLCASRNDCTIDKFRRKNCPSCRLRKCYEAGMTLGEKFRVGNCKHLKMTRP
In words: Degradation experiment on AR splice variant 7 (AR-V7) in 22RV1 cells. The series is classed as cell-based. To be noted: 24 h. The protocol: Prostate cancer cells 22RV1 were purchased from ATCC, the cell medium was 1640+10% FBS, and the cells were cultured in an incubator at 37° C. under 5% CO2. On day 1, the cells in an exponential phase were collected. With a 1% css-FBS phenol red-free medium, the cell suspension was adjusted to a corresponding concentration and plated into a 6-well plate at 1 mL/well and 300000 cells/well. The next day, a 1% css-FBS phenol-free medium containing the compound to be tested was added, a 1% css-FBS phenol-free medium containing 0.2% DMSO was added to one well as DMSO vehicle control, and the 6-well plate was cultured in an incubator at 37° C. under 5% CO2. After 24 h, the cells were digested with pancreatin and collected into a 1.5 mL centrifuge tube. 15 μL of RIPA lysate (containing 1× protease inhibitor cocktail) was added to each well, and the cells were lysed on ice for 15 min and then centrifuged at 12000 g at 4° C.′ for 10 min. The supernatant protein samples were collected, and protein quantification was performed by a BCA method. AR-V7 was detected using fully automatic protein expression quantitative analysis, which involved diluting the protein to be tested to 2 mg/mL, 4 μL of the diluted protein samples were added to 1 μL of 5× Master Mix (provided in the kit), and the prepared samples were denatured at 95° C. for 5 min and placed on ice for use. The primary antibodies. AR V7 (CST, 19672S) and β-actin (CST, 3700), were diluted with Antibody Diluent II (provided in the kit) at a dilution ratio of 1:10 and 1:500, respectively. The secondary antibody was a mixed goat anti-mouse and goat anti-rabbit secondary antibody in a ratio of 1:1, and the color development solution was a mixed solution of Lumino-S and Peroxide in a ratio of 1:1. The prepared reagents were successively added to an assay plate according to instructions of the kit and detected on an instrument. Western blot band processing was performed using “Compass for SW”, a fully automatic protein expression quantitative analysis software, in which western blot bands were automatically simulated based on signal values. The degradation rate of AR-V7 (4) relative to vehicle control at different compound concentrations was calculated according to formula (4), wherein AR-V7compound was the relative peak area of AR-V7 in the treated group, and AR-V7solvent was the relative peak area of AR-V7 in the vehicle control group.
DC50 calculation: the compound concentration DC50 values at which the degradation rate of AR-V7 was 50% were calculated using Graphpad software and analyzed using log (inhibitor) vs. response-Variable slope (four parameters) function according to formula (4).

In series [4] the test system is Prostate cancer cells 22RV1. In words: Experiment on inhibiting 22RV1 cell proliferation (CellTiter-Glo, 7 days). The series is classed as cell-based. Particulars: Homo sapiens, 168 h, 22RV1 cells, 7 days incubation, cells with nM printed beside the value, read-out: IC50 values for inhibition of 22RVI cells. Summed up:
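22RV1 cells at 2000/well in 1% charcoal-stripped-FBS phenol red-free medium, treated next day with compound for 7 days at 37 °C, 5% CO2. Viability by CellTiter-Glo luminescence; inhibition relative to DMSO vehicle, IC50 from dose-response fit.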

SMILES strings stand for the structures.

As to `CC(C)(C(=O)Nc1cnc(C#N)c(C(F)(F)F)c1)n1cc(C#CC2CN(c3ccc4c(c3)C(=O)N(C3CCC(=O)NC3=O)C4=O)C2)cn1` (centres unmarked) [Compound 4, N-(6-cyano-5-(trifluoromethyl)pyridin-3-yl)-2-(4-((1-(2-(2,6-dioxopiperidin-3-yl)-1,3-dioxoisoindolin-5-yl)azetidin-3-yl)ethynyl)-1H-pyrazol-1-yl)-2-methylpropanamide], the “degradation effect on AR-FL” value with Full-length AR (AR-FL) was “significant degradation effect”. In series [1], the bioavailability is 51.2 ± 9.7% and the AUC(0-t) was 29400 ± 5590 ng·h/mL. Also, the “degradation effect on AR-Vs” value in series [2] is on record as “significant degradation effect”.

In series [1], `CC(C)(C(=O)Nc1ccc(C#N)c2ccccc12)n1cc(C#CC2CN(c3ccc4c(c3)C(=O)N(C3CCC(=O)NC3=O)C4=O)C2)cn1` (centres unmarked) [Compound 21, N-(4-cyanonaphthalen-1-yl)-2-(4-((1-(2-(2,6-dioxopiperidin-3-yl)-1,3-dioxoisoindolin-5-yl)azetidin-3-yl)ethynyl)-1H-pyrazol-1-yl)-2-methylpropanamide] returned a bioavailability of 69.1 ± 12% and an AUC(0-t) of 15200 ± 2610 ng·h/mL. Also, the DC50 in series [3] is < 500 nM. The IC50 in series [4] was < 50 nM.
